In patent US9012651B2, “TRPV3 modulators” (AbbVie Inc., priority 2011, dated 2015):

These molecules were tested against human TRPV3 receptors (Homo sapiens (Human), UniProt Q8NET8) (assay: Calcium flux assay (FLIPR TETRA), inhibition of the 2-APB response). Conditions: recombinant HEK293 cells stably expressing TRPV3, Calcium-4 dye, 2-APB at its EC80.
Assay type: cell-based
Experimental: (i) In Vitro Methods-Calcium Flux Assays:
Experiments were conducted using the FLIPR^TETRA®. On the day prior to the experiment, recombinant HEK293 cells that stably express human and mouse TRPV3 were removed from tissue culture flasks and plated in growth medium at 20,000 cells/well into black-walled clear-bottom 384-well Biocoat™ poly-D-lysine assay plates (BD Biosciences, Bedford, Mass.) using a Multidrop® dispenser (ThermoScientific, Waltham, Mass.). […] Cells were incubated for 90-120 minutes in the dark. Compounds were dissolved in DMSO to prepare a 10 mM stock solution. The intensity of the fluorescence was captured and digitally transferred to an interfaced PC. The peak increase in fluorescence over baseline (relative fluorescence units) was calculated and expressed as the percentage of the maximal 2-APB (2-aminoethoxyldiphenyl borate) response (in the absence of compound).

Sequence of human TRPV3 receptors (Q8NET8 whole entry): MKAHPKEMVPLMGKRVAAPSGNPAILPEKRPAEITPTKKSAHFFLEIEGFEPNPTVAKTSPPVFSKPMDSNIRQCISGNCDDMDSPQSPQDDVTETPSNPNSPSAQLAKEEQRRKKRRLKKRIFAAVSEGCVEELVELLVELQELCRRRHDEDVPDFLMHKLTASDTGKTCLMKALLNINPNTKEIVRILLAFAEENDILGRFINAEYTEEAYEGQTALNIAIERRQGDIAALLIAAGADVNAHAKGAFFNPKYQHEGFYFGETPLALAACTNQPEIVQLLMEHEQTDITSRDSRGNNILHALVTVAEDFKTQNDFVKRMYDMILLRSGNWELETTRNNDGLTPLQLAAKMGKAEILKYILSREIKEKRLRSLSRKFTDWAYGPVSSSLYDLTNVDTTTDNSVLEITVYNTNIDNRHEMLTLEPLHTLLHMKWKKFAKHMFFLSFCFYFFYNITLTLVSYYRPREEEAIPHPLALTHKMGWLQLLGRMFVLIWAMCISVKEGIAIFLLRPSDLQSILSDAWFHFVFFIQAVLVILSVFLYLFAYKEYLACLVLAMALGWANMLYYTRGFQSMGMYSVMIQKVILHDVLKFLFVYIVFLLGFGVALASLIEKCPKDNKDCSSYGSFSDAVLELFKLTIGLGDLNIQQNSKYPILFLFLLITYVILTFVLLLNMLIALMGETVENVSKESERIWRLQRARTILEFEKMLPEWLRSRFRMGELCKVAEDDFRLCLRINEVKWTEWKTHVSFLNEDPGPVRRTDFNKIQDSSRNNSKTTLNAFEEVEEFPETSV

**Q.** With `CC(C)[C@H](CO)NCc1nc(-c2ccc(C(F)(F)F)c(Cl)c2)ccc1F` [Example 47, (2R)-2-[({6-[3-chloro-4-(trifluoromethyl)phenyl]-3-fluoropyridin-2-yl}methyl)amino]-3-methylbutan-1-ol] as the molecule, how does the IC50 read?
**A.** Its IC50 is 0.29 µM.

**Q.** How did the IC50 turn out when `CC(C)[C@H](CO)NCc1nc(-c2cccc(S(=O)(=O)N3CCCCC3)c2)ccc1F` [Example 48, (2R)-2-[({3-fluoro-6-[3-(piperidin-1-ylsulfonyl)phenyl]pyridin-2-yl}methyl)amino]-3-methylbutan-1-ol] was run?
**A.** The IC50 was 0.33 µM.

**Q.** With `CC(C)[C@H](CO)NCc1nc(-c2cccc(N3CCCC3)c2)ccc1F` [Example 49, (2R)-2-[({3-fluoro-6-[3-(pyrrolidin-1-yl)phenyl]pyridin-2-yl}methyl)amino]-3-methylbutan-1-ol] as the molecule, how does the IC50 read?
**A.** Its IC50 is 0.48 µM.

**Q.** For `Cc1ccc(S(=O)(=O)N(C)C)cc1-c1ccc(F)c(CN[C@@H](CO)C(C)C)n1` [Example 50, 3-[5-fluoro-6-({[(2R)-1-hydroxy-3-methylbutan-2-yl]amino}methyl)pyridin-2-yl]-N,N,4-trimethylbenzenesulfonamide], which IC50 is on record?
**A.** Its IC50 is 1.77 µM.

**Q.** For `CCN(CC)S(=O)(=O)c1cccc(-c2ccc(F)c(CN[C@@H](CO)C(C)C)n2)c1` [Example 51, N,N-diethyl-3-[5-fluoro-6-({[(2R)-1-hydroxy-3-methylbutan-2-yl]amino}methyl)pyridin-2-yl]benzenesulfonamide], which IC50 is on record?
**A.** Its IC50 is 0.5 µM.

**Q.** Which IC50 does the source give for `CC(C)[C@H](CO)NCc1nc(-c2cccc(C(=O)N(C)C3CCCCC3)c2)ccc1F` [Example 52, N-cyclohexyl-3-[5-fluoro-6-({[(2R)-1-hydroxy-3-methylbutan-2-yl]amino}methyl)pyridin-2-yl]-N-methylbenzamide] here?
**A.** The IC50 was 1.42 µM.

**Q.** `CC(C)[C@H](CO)NCc1nc(-c2ccc(OCC(F)(F)F)cc2)ccc1F` [Example 53, (2R)-2-[({3-fluoro-6-[4-(2,2,2-trifluoroethoxy)phenyl]pyridin-2-yl}methyl)amino]-3-methylbutan-1-ol] was tested. Which IC50 did it give?
**A.** The IC50 was 0.46 µM.

**Q.** For `CC(C)[C@H](CO)NCc1nc(-c2cccc(S(=O)(=O)N3CCOCC3)c2)ccc1F` [Example 54, (2R)-2-[({3-fluoro-6-[3-(morpholin-4-ylsulfonyl)phenyl]pyridin-2-yl}methyl)amino]-3-methylbutan-1-ol], which IC50 is on record?
**A.** The IC50 was 0.76 µM.

**Q.** With `CC(C)[C@H](CO)NCc1nc(-c2ccnc(N3CCOCC3)c2)ccc1F` [Example 55, (2R)-2-({[5-fluoro-2′-(morpholin-4-yl)-2,4′-bipyridin-6-yl]methyl}amino)-3-methylbutan-1-ol] as the molecule, how does the IC50 read?
**A.** Its IC50 is 2.16 µM.

**Q.** `CC(C)[C@H](CO)NCc1nc(-c2cccc(C(=O)N(C(C)C)C(C)C)c2)ccc1F` [Example 56, 3-[5-fluoro-6-({[(2R)-1-hydroxy-3-methylbutan-2-yl]amino}methyl)pyridin-2-yl]-N,N-diisopropylbenzamide] was tested. Which IC50 did it give?
**A.** Its IC50 is 1.78 µM.

**Q.** Which IC50 does the source give for `CC(C)Oc1ccc(-c2ccc(F)c(CN[C@@H](CO)C(C)C)n2)cn1` [Example 57, (2R)-2-({[5-fluoro-6′-(propan-2-yloxy)-2,3′-bipyridin-6-yl]methyl}amino)-3-methylbutan-1-ol] here?
**A.** Its IC50 is 0.5 µM.

**Q.** How did the IC50 turn out when `CC(C)[C@H](CO)NCc1nc(-c2cccc(C(=O)N(C)Cc3ccccc3)c2)ccc1F` [Example 58, N-benzyl-3-[5-fluoro-6-({[(2R)-1-hydroxy-3-methylbutan-2-yl]amino}methyl)pyridin-2-yl]-N-methylbenzamide] was run?
**A.** The IC50 was 1.49 µM.

**Q.** For `Cc1ccc(S(=O)(=O)C(F)(F)F)cc1-c1ccc(F)c(CN[C@@H](CO)C(C)C)n1` [Example 59, (2R)-2-{[(3-fluoro-6-{2-methyl-5-[(trifluoromethyl)sulfonyl]phenyl}pyridin-2-yl)methyl]amino}-3-methylbutan-1-ol], which IC50 is on record?
**A.** Its IC50 is 0.63 µM.

**Q.** Which IC50 does the source give for `CC(C)[C@H](CO)NCc1nc(-c2cccc(S(=O)(=O)N3CCCC3)c2)ccc1F` [Example 60, (2R)-2-[({3-fluoro-6-[3-(pyrrolidin-1-ylsulfonyl)phenyl]pyridin-2-yl}methyl)amino]-3-methylbutan-1-ol] here?
**A.** The IC50 was 1.08 µM.

**Q.** `CC(C)[C@H](CO)NCc1nc(-c2cccc(S(=O)(=O)N(C)C(C)(C)C)c2)ccc1F` [Example 61, N-tert-butyl-3-[5-fluoro-6-({[(2R)-1-hydroxy-3-methylbutan-2-yl]amino}methyl)pyridin-2-yl]-N-methylbenzenesulfonamide] was tested. Which IC50 did it give?
**A.** The IC50 was 0.19 µM.

**Q.** Which IC50 does the source give for `CC(C)[C@H](CO)NCc1nc(-c2cccc(C(=O)N3CCSCC3)c2)ccc1F` [Example 62, {3-[5-fluoro-6-({[(2R)-1-hydroxy-3-methylbutan-2-yl]amino}methyl)pyridin-2-yl]phenyl}(thiomorpholin-4-yl)methanone] here?
**A.** The IC50 was 4 µM.

**Q.** For `CC(C)[C@H](CO)NCc1nc(-c2cccc3c2ccn3C)ccc1F` [Example 63, (2R)-2-({[3-fluoro-6-(1-methyl-1H-indol-4-yl)pyridin-2-yl]methyl}amino)-3-methylbutan-1-ol], which IC50 is on record?
**A.** Its IC50 is 1.74 µM.

**Q.** Which IC50 does the source give for `CC(C)[C@H](CO)NCc1nc(-c2ccc3ccn(C)c3c2)ccc1F` [Example 64, (2R)-2-({[3-fluoro-6-(1-methyl-1H-indol-6-yl)pyridin-2-yl]methyl}amino)-3-methylbutan-1-ol] here?
**A.** The IC50 was 0.48 µM.

**Q.** For `CC(C)[C@H](CO)NCc1nc(N2CCCC(C(F)(F)F)C2)ccc1F` (stereo partly drawn) [Example 65, (2R)-2-[({3-fluoro-6-[3-(trifluoromethyl)piperidin-1-yl]pyridin-2-yl}methyl)amino]-3-methylbutan-1-ol], which IC50 is on record?
**A.** The IC50 was 0.32 µM.

**Q.** `CC(C)[C@H](CO)NCc1nc(N2CCC(C(F)(F)F)CC2)ccc1F` [Example 66, (2R)-2-[({3-fluoro-6-[4-(trifluoromethyl)piperidin-1-yl]pyridin-2-yl}methyl)amino]-3-methylbutan-1-ol] was tested. Which IC50 did it give?
**A.** Its IC50 is 0.22 µM.

**Q.** How did the IC50 turn out when `CC(C)[C@H](CO)NCc1nc(N2CCC(C(F)(F)F)C2)ccc1F` (stereo partly drawn) [Example 67, (2R)-2-[({3-fluoro-6-[3-(trifluoromethyl)pyrrolidin-1-yl]pyridin-2-yl}methyl)amino]-3-methylbutan-1-ol] was run?
**A.** Its IC50 is 0.42 µM.

**Q.** `CC(C)[C@H](CO)NCc1nc(-c2ccc(OCC(F)(F)F)nc2)ccc1F` [Example 68, (2R)-2-({[5-fluoro-6′-(2,2,2-trifluoroethoxy)-2,3′-bipyridin-6-yl]methyl}amino)-3-methylbutan-1-ol] was tested. Which IC50 did it give?
**A.** The IC50 was 0.59 µM.

**Q.** `CC(C)[C@H](CO)NCc1cccc(-c2ccc(C(F)(F)F)nc2)n1` [Example 69, (2R)-3-methyl-2-({[6′-(trifluoromethyl)-2,3′-bipyridin-6-yl]methyl}amino)butan-1-ol] was tested. Which IC50 did it give?
**A.** Its IC50 is 3.72 µM.

**Q.** `CC(C)[C@H](CO)NCc1nc(N2CCc3ccccc3C2)ccc1F` [Example 70, (2R)-2-({[6-(3,4-dihydroisoquinolin-2(1H)-yl)-3-fluoropyridin-2-yl]methyl}amino)-3-methylbutan-1-ol] was tested. Which IC50 did it give?
**A.** The IC50 was 0.18 µM.

**Q.** For `CC(C)[C@H](CO)NCc1nc(N2Cc3ccccc3C2)ccc1F` [Example 71, (2R)-2-({[6-[1,3-dihydro-2H-isoindol-2-yl)-3-fluoropyridin-2-yl]methyl}amino)-3-methylbutan-1-ol], which IC50 is on record?
**A.** Its IC50 is 0.16 µM.

**Q.** For `CC(C)[C@H](CO)NCc1nc(-c2ccc(C(F)(F)F)cn2)ccc1F` [Example 73, (2R)-2-({[5-fluoro-5′-(trifluoromethyl)-2,2′-bipyridin-6-yl]methyl}amino)-3-methylbutan-1-ol], which IC50 is on record?
**A.** Its IC50 is 0.14 µM.

**Q.** With `COCC(CO)NCc1nc(-c2ccc(C(F)(F)F)cc2)ccc1F` (stereo not drawn) [Example 74, 2-[({3-fluoro-6-[4-(trifluoromethyl)phenyl]pyridin-2-yl}methyl)amino]-3-methoxypropan-1-ol] as the molecule, how does the IC50 read?
**A.** The IC50 was 3.68 µM.

**Q.** How did the IC50 turn out when `OC[C@H](NCc1nc(-c2ccc(C(F)(F)F)nc2)ccc1F)C1CC1` [Example 75, (2R)-2-cyclopropyl-2-({[5-fluoro-6′-(trifluoromethyl)-2,3′-bipyridin-6-yl]methyl}amino)ethanol] was run?
**A.** Its IC50 is 3.02 µM.

**Q.** For `OC[C@H](NCc1nc(-c2ccc(OCC(F)(F)F)nc2)ccc1F)C1CC1` [Example 76, (2R)-2-cyclopropyl-2-({[5-fluoro-6′-(2,2,2-trifluoroethoxy)-2,3′-bipyridin-6-yl]methyl}amino)ethanol], which IC50 is on record?
**A.** The IC50 was 1.6 µM.

**Q.** How did the IC50 turn out when `CC[C@H](CO)NCc1nc(-c2ccc(C(F)(F)F)cc2)ccc1F` [Example 77, (2R)-2-[({3-fluoro-6-[4-(trifluoromethyl)phenyl]pyridin-2-yl}methyl)amino]butan-1-ol] was run?
**A.** The IC50 was 0.54 µM.

**Q.** `CC[C@H](CO)NCc1nc(-c2ccc(C(F)(F)F)nc2)ccc1F` [Example 78, (2R)-2-({[5-fluoro-6′-(trifluoromethyl)-2,3′-bipyridin-6-yl]methyl}amino)butan-1-ol] was tested. Which IC50 did it give?
**A.** Its IC50 is 10.2 µM.

**Q.** Which IC50 does the source give for `OCC1(NCc2nc(-c3ccc(C(F)(F)F)cc3)ccc2F)CCC1` [Example 79, {1-[({3-fluoro-6-[4-(trifluoromethyl)phenyl]pyridin-2-yl}methyl)amino]cyclobutyl}methanol] here?
**A.** The IC50 was 0.7 µM.

**Q.** `OCC1(NCc2nc(-c3ccc(C(F)(F)F)cc3)ccc2F)CCCC1` [Example 80, {1-[({3-fluoro-6-[4-(trifluoromethyl)phenyl]pyridin-2-yl}methyl)amino]cyclopentyl}methanol] was tested. Which IC50 did it give?
**A.** The IC50 was 0.29 µM.

**Q.** `OCC1(NCc2nc(-c3ccc(C(F)(F)F)cc3)ccc2F)CCCCC1` [Example 81, {1-[({3-fluoro-6-[4-(trifluoromethyl)phenyl]pyridin-2-yl}methyl)amino]cyclohexyl}methanol] was tested. Which IC50 did it give?
**A.** The IC50 was 0.68 µM.

**Q.** For `C[C@H](CO)NCc1nc(-c2ccc(C(F)(F)F)cc2)ccc1F` [Example 82, (2R)-2-[({3-fluoro-6-[4-(trifluoromethyl)phenyl]pyridin-2-yl}methyl)amino]propan-1-ol], which IC50 is on record?
**A.** The IC50 was 1.64 µM.

**Q.** Which IC50 does the source give for `CCC[C@H](CO)NCc1nc(-c2ccc(C(F)(F)F)cc2)ccc1F` [Example 83, (2R)-2-[({3-fluoro-6-[4-(trifluoromethyl)phenyl]pyridin-2-yl}methyl)amino]pentan-1-ol] here?
**A.** Its IC50 is 0.46 µM.
